Measurements published in patent US20230099367A1 (VERSITECH LIMITED, priority 2019, published 2023).
Blank lines part the entries; values can stand above or below the compound they belong to. Ends that are not written are not given here.

Experiments:
[1] = in vivo; cited from earlier work
plasma vasopressin = assay: Plasma vasopressin after intracerebroventricular injection; format: in vivo, C57 mice; conditions: i.c.v.; secretin 500 ng/5 μl, KSD179019 260 ng/5 μl; 0-60 min; vs ACSF
Procedure: The complete protocol was performed as reported in our lab. Mice were implanted with the stainless-steel cannula with a projection to the lateral ventricular region (bregma: 0.5 mm, lateral: 1.0 mm and depth: 2.0 mm). The mice were allowed to recover for at least 5 days after the surgery. […] ACSF alone was used as a vehicle control. After drug treatment, blood was collected from the jugular vein at 0, 15, 30, 45 and 60 min. Plasma samples were collected from the whole blood by centrifugation at 4000×g for 10 min at 4° C. The samples were then used for the quantification of vasopressin by the help of ELISA using a commercial kit from (Phoenix Pharmaceuticals, Inc.) according to manufacturer instruction.

[2] = Acute oral toxicity over 14 days (OECD-423), LD50 estimation; format: in vivo, C57BL/6J mice
Procedure: In vitro and in vivo toxicity testing was performed. All these test were performed using the OECD guidelines. […] The MTT assay was performed on liver cells (HepG2 cell line) and kidney cells (HEK293 cell line) as they are the major organs effected by drug toxicity. […] Additionally, the potential carcinogenicity of this drug is tested according to OECD-471 (Ames test) using the commercially available kit from XENOMETRIX. The mutation effect of the drug was tested in salmonella strains (TA98, TA100, TA1535 and TA1537) and on the combination of two E.coli strains (uvrA and pKM101) (FIGS. 8a; 8b; 8c; 8d and 8e). […] Additionally, as the drug's secondary metabolite can also have carcinogenic effect, the Ames test was performed in presence of liver enzymes which can cause the formation of secondary metabolites (S9 liver extract) (FIGS. 9a; 9b; 9c; 9d and 9e). […] The animal testing was done under an animal license from the Laboratory Animal Unit (LAU) of the University of Hong Kong for testing at acute, sub-chronic and chronic levels of exposure. The study was done based on the OECD-423 guidelines. […] The test was done on 6 animals in two batches in both males and females. The body weight change remained under 2 grams (FIG. 11) which is normal growth for 9 weeks old C57BL/6J (https://www.jax.org/jax-mice-and-services/strain-data-sheet-pages/body-weight-chart-000664#). […] The animals were subjected to histological analysis post sacrificing on day 14. Major organs like brain, heart, liver, kidney, intestine, and colon were collected and analysed. […] However, in order to determine a dose for sub-chronic and chronic studies, according to OECD recommendations, 3 animals were administered 5000 mg/kg BW of drug in a single administration. […] During the 14 day observation the animals remained healthy with no change in body weight and body temperature (FIG. 13).
In vitro and in vivo toxicity testing was performed. All tests were performed using the OECD guidelines. […] The MTT assay was performed on liver cells (HepG2 cell line) and kidney cells (HEK293 cell line) as they are the major organs effected by drug toxicity. […] Additionally, the potential carcinogenicity of this drug is tested according to OECD-471 (Ames test) using the commercially available kit from XENOMETRIX. The mutation effect of the drug was tested in salmonella strains (TA98, TA100, TA1535 and TA1537) and on the combination of two E.coli strains (uvrA and pKM101) (FIGS. 19a; 19b; 19c; 19d and 19e). […] Additionally, as the drug's secondary metabolite can also have carcinogenic effect, the Ames test was performed in presence of liver enzymes which can cause the formation of secondary metabolites (S9 liver extract) (FIGS. 20a; 20b; 20c; 20d and 20e). […] The animal testing was done under an animal license from the Laboratory Animal Unit (LAU) of the University of Hong Kong for testing at acute, sub-chronic and chronic levels of exposure. The study was done based on the OECD-423 guidelines. […] The test was done on 6 animals in two batches in both males and females. The body weight change remained under 2 grams (FIG. 21) which is normal growth for 9 weeks old C57BL/6J (https://www.jax.org/jax-mice-and-services/strain-data-sheet-pages/body-weight-chart-000664#). […] The animals were subjected to histological analysis post sacrificing on day 14. Major organs like brain, heart, liver, kidney, intestine, and colon were collected and analysed. […] However, in order to determine a dose for sub-chronic and chronic studies, according to OECD recommendations, 3 animals were administered 5000 mg/kg BW of drug in a single administration. […] During the 14 day observation the animals remained healthy with no change in body weight and body temperature (FIG. 23).

[3] = system: salmonella strains (TA98, TA100, TA1535 and TA1537) and combination of two E.coli strains (uvrA and pKM101); assay: Ames test for mutagenicity (OECD-471)
Procedure: In vitro and in vivo toxicity testing was performed. All these test were performed using the OECD guidelines. […] The MTT assay was performed on liver cells (HepG2 cell line) and kidney cells (HEK293 cell line) as they are the major organs effected by drug toxicity. […] Additionally, the potential carcinogenicity of this drug is tested according to OECD-471 (Ames test) using the commercially available kit from XENOMETRIX. The mutation effect of the drug was tested in salmonella strains (TA98, TA100, TA1535 and TA1537) and on the combination of two E.coli strains (uvrA and pKM101) (FIGS. 8a; 8b; 8c; 8d and 8e). […] Additionally, as the drug's secondary metabolite can also have carcinogenic effect, the Ames test was performed in presence of liver enzymes which can cause the formation of secondary metabolites (S9 liver extract) (FIGS. 9a; 9b; 9c; 9d and 9e). […] The animal testing was done under an animal license from the Laboratory Animal Unit (LAU) of the University of Hong Kong for testing at acute, sub-chronic and chronic levels of exposure. The study was done based on the OECD-423 guidelines. […] Major organs like brain, heart, liver, kidney, intestine, and colon were collected and analysed. […]
In vitro and in vivo toxicity testing was performed. […] Major organs like brain, heart, liver, kidney, intestine, and colon were collected and analysed. […]

SCTR = target: T1, SCTR (Mus musculus, UniProt Q5FWI2); assay: Ex vivo cAMP assay on isolated mouse tissues; set-up: species or system mice (C57); conditions: isolated C57 mouse tissues; secretin 1 μM, KSD179019 100 μM
T1 construct: low expression levels of the intrinsic receptor; from tissue; host or cells: duodenum, pancreas, cerebellum and kidney of C57 mice
T1 sequence (Q5FWI2 29-447): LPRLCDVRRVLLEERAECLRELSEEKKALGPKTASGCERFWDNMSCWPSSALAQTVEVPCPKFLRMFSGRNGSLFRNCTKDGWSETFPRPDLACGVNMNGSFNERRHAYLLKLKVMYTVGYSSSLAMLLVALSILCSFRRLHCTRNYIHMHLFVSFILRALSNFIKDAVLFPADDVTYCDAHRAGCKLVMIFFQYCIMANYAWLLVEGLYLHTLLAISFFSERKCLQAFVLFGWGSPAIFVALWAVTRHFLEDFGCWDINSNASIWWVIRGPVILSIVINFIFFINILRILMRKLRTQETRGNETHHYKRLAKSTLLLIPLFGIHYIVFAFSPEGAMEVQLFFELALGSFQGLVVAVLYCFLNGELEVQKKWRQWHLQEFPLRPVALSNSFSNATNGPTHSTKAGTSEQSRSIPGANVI
Description: Various tissues were collected from C57 mice and were washed three times with ice-cold HBSS (Invitrogen). Tissues were minced and weighed equally into four parts. […] After drug treatment, the tissues were homogenized for measuring the concentration of the cAMP by the Lance cAMP assay kit.

blood pressure [4] = assay: Blood pressure in spontaneously hypertensive rats (DSI telemetry); format: in vivo, spontaneously hypertensive rat (SHR)
Procedure: Anti-hypertensive action of KSD179019 was analyzed by continues monitoring of the blood pressure and heart rate on spontaneously hypertensive rat (SHR) by using DSI telemetric implantation. DSI device was surgically implanted using the methodology described before. […] We used conventional combination therapy i.e. Azilsartan (Az; 0.3 μg/g BW) and Chlorthalidone (CLT; 1 μg/g BW) for the comparison with […]. Az is an angiotensin II receptor antagonist and CLT is a diuretic compound. Both these compounds are commonly used in the treatment of hypertension either individually and in combination. The dosing of the combination of Az+CLT on SHR rats is used as documented in previous publications. For blood pressure monitoring, telemetric device by DSI was used, using the implantation methodology mentioned earlier.

human SCTR = target: T2, human SCTR (Homo sapiens, UniProt P47872); assay: In vitro Lance cAMP assay in CHO cells overexpressing human SCTR; format: cell-based
T2 construct: expressed in transfected cells; host or cells: CHO cells
T2 sequence (P47872 23-440): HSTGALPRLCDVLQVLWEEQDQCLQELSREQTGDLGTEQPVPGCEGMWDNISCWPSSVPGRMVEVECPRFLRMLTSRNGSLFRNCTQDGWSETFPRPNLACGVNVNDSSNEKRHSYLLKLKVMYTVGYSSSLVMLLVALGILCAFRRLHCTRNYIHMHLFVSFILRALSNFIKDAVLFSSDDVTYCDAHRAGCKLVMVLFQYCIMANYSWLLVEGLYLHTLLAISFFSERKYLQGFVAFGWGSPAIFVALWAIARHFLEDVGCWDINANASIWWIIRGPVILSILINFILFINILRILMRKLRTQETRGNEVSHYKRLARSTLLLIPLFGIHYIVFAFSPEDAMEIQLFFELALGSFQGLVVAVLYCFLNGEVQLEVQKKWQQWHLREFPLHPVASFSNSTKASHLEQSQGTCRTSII
Procedure: As SCTR is known to have cAMP as the secondary messenger, therefore to study receptor activation, the concentration of cAMP is measured by the help of Lance cAMP assay using the assay kit from PerkinElmer, as per the standardized protocol in our lab. […] Additionally, the cells upon transfection were used for the extraction of total RNA (TriPure reagent, Invitrogen) to confirm the receptor's expression.
The selected compounds were procured from TargetMol and chemicalbook.com. […] The five compounds were then used for analyzing their dose-dependent response on the SCTR to verify their effect on the receptor.

blood pressure [5] = assay: Blood pressure after intraperitoneal secretin (DSI telemetry); format: in vivo, C57 mice; conditions: secretin 0.5 μg/g BW intraperitoneal; 5 min post administration
Procedure: The DSI telemetric device was implanted using the standardized protocol from our lab. Post recovery, blood pressure measurements, and drug administration were initiated. […] The heart rate and blood pressure were measured continually up to 150 min post-injection time.

[6] = 14 days after 2000 mg/kg BW oral

Compound: SecreFlo: synthetic secretin peptide analog (HSDGTFTSELSRLRDSARLQRLLQGLV; ends and bridges not checked; UniProt P63298 33-59, looked up)
half-life in circulation [1]: 20 min

Compound: c1ccc2c(Oc3nc(Nc4ccc(N5CCOCC5)cc4)c4ncn(C5CCCCC5)c4n3)cccc2c1 [KSD179019, puromorphamine]
plasma Vp (vasopressin) concentration (plasma vasopressin): significant increase in plasma Vp | fatal or toxic effects ([2]; 5000 mg/kg BW single administration, 14 day observation): no fatal or toxic effects were observed | overall health of animals ([2]; 14 day after single oral dose of 2000 mg/kg BW): no effect on the overall health of animals | body temperature [2, 6]: remained constant | body weight change [2, 6]: under 2 grams | histological analysis of major organs (necrosis) ([2]; day 14, brain, heart, liver, kidney, intestine, colon, 2000 mg/kg BW): None of these organs were observed to have any signs of necrosis | LD50 ([2]; single oral administration, male and female mice, estimated, no fatality at 2000 mg/kg BW): 2000-5000 mg/kg BW | carcinogenic potential of drug or metabolites, Ames test ([3]; in presence of S9 liver extract): no carcinogenic potential | mutation effect, Ames test ([3]; without S9 liver extract): No mutational effect | cAMP production from duodenum, cerebellum and pancreas (SCTR): able to stimulate cAMP production | hypotensive effect, times longer than combination therapy (Az and CLT) (blood pressure [4]; SHR rats): 3 times | hypotensive effect, times longer than secretin peptide (blood pressure [4]; SHR rats): 360 times | time that reduction in blood pressure lasted significantly (blood pressure [4]; SHR, 0.26 μg/g BW tail vein (FIG. 12C)): up to 20 hours | blood pressure reduction (blood pressure [4]; SHR, 0.26 μg/g BW tail vein injection, vs saline): consistent blood pressure reduction | drop in blood pressure at peak (blood pressure [4]; SHR, KSD179019, peaked at 40 hours): 10% | reduction in mean arterial blood pressure (blood pressure [4]; SHR, intravenous 0.26 μg/g BW, up to 60 hours post administration): approximately 10% | reduction of MABP (blood pressure [4]; SHR, intravenous, at 40 and 60 hours (FIG. 13B, N=2)): 10% | time window of statistically significant drops in diastolic and systolic blood pressure (blood pressure [4]; SHR, oral 30, 50 and 80 mg/kg BW (FIG. 17)): 20 to 50 h | time window of statistically significant drops in diastolic and systolic blood pressure (blood pressure [4]; SHR, tail-vein 0.26 μg/g body weight (FIG. 16)): 20 to 50 h | duration of hypotensive effect post administration (blood pressure [4]; SHR, until blood pressure recovered / effect still observed): up to 60 hours | efficacy, % of maximal cAMP (of secretin) (human SCTR; SCT with KSD179019 (100 μM), maximal cAMP by SCT at 1 μM): 131.9% | cAMP concentration compared to basal level (agonist screening) (human SCTR; compound 100 μM, CHO cells overexpressing human SCTR): low but statistically significant increase in cAMP concentration | cAMP response together with secretin (antagonist screening) (human SCTR; compound (10 μM in FIG. 6 legend, 100 μM elsewhere in the source) with 1 μM secretin): potentiated the effect of secretin with significantly higher cAMP response | dose-dependent effect on secretin cAMP stimulation (human SCTR; different secretin concentrations plus KSD179019 100 μM): dose-dependent potentiation of secretin on cAMP stimulation

cAMP production from duodenum, cerebellum and pancreas (SCTR): able to stimulate cAMP production
Compound: CC(C)C[C@H](NC(=O)CNC(=O)[C@H](CCC(N)=O)NC(=O)[C@H](CC(C)C)NC(=O)[C@H](CC(C)C)NC(=O)[C@H](CCCNC(=N)N)NC(=O)[C@H](CCC(N)=O)NC(=O)[C@H](CC(C)C)NC(=O)[C@H](CCCNC(=N)N)NC(=O)[C@H](C)NC(=O)CNC(=O)[C@H](CCC(=O)O)NC(=O)[C@H](CCCNC(=N)N)NC(=O)[C@H](CC(C)C)NC(=O)[C@H](CCCNC(=N)N)NC(=O)[C@H](CO)NC(=O)[C@H](CC(C)C)NC(=O)[C@H](CCC(=O)O)NC(=O)[C@H](CO)NC(=O)[C@@H](NC(=O)[C@H](Cc1ccccc1)NC(=O)[C@@H](NC(=O)CNC(=O)[C@H](CC(=O)O)NC(=O)[C@H](CO)NC(=O)[C@@H](N)Cc1c[nH]cn1)[C@@H](C)O)[C@@H](C)O)C(=O)N[C@H](C(N)=O)C(C)C [secretin, reference compound]
plasma Vp (vasopressin) concentration (plasma vasopressin): significant increase in plasma Vp | half-life in circulation [1]: approximately 2 min | duration of blood pressure reduction (blood pressure [4]; intravenous injection of secretin peptide): approximately 10 min | systolic and diastolic blood pressure drop (blood pressure [5]): blood pressure drop was significant

Compound: ChiRhoStim: synthetic secretin peptide analog
half-life in circulation [1]: 45 min
